One assay addresses T1, HDAC6 (Homo sapiens, UniProt Q9UBN7).
T1 construct: purchased BPS Bioscience
T1 sequence (Q9UBN7 1-1215): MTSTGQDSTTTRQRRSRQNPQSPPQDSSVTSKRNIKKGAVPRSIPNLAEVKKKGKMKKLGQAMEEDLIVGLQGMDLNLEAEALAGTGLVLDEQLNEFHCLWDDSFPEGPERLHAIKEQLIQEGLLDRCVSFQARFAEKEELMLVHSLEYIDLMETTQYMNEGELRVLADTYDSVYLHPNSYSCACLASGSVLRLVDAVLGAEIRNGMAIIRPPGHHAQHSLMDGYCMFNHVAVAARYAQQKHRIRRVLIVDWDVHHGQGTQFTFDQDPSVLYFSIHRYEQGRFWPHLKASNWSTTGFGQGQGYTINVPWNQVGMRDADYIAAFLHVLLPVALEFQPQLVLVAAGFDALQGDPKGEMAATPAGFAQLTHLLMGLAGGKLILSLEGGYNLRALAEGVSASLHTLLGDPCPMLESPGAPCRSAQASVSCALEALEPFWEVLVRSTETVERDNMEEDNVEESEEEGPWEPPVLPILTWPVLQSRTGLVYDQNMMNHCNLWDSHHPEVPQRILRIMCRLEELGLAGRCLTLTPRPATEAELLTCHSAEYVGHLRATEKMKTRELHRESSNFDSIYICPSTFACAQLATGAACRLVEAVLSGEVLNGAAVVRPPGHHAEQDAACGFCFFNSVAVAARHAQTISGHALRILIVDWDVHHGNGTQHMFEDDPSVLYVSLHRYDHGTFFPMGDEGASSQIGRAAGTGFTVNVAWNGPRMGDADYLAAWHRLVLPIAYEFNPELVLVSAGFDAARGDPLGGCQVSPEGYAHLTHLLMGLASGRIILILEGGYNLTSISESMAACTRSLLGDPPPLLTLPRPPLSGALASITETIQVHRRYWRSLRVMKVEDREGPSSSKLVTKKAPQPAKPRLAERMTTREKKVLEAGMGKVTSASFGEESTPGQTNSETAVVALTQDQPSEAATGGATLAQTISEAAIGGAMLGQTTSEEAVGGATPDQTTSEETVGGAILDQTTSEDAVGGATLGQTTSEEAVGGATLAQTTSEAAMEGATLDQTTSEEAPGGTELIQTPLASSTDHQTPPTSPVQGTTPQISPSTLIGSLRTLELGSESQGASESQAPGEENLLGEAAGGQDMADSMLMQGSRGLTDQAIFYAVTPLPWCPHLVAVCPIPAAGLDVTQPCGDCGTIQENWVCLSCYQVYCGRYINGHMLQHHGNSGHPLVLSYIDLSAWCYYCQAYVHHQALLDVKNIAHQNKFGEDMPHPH
The experiment in a line: In vitro HDACs inhibitory assay (fluorogenic substrate), HDAC6. The class given is biochemical. On the procedure: (§1) All the HDAC enzymes were brought from BPS Bioscience. Ten μL of enzyme solution (HDAC1, HDAC6 or HDAC8) was mixed with different concentrations of tested compound (50 μL). The mixture was incubated at 37 °C for 5 min, followed by adding 40 μL fluorogenic substrate (Boc-Lys(acetyl)-AMC for HDAC1 and HDAC6, Boc-Lys(triflouroacetyl)-AMC for HDAC8). After incubation at 37 °C for 30 min, the mixture was quenched by addition of 100 μL of developer containing trypsin and Trichostatin A. Over another incubation at 37 °C for 20 min, fluorescence intensity was measured using a microplate reader at excitation and emission wavelengths of 390 nm and 460 nm, respectively. The inhibition rates were calculated from the fluorescence intensity readout of tested wells relative to those of control wells, and the IC50 values were calculated using Prism non-linear curve fitting method.

Another assay concerns rat thoracic aorta rings. The assay is described as follows: Ex vivo rat thoracic aorta rings (TARs) assay. The class given is cell-based. The settings on record: for anti-angiogenesis activity (microvessel outgrowth) at 5 μM: compared with bestatin at same concentration; for microvessel outgrowth from thoracic aorta ring: indicated concentrations, treated each day for 5 days. On the procedure:
Matrigel (100 μL; BD biosciences, NJ) was added into test well of 96-well plates and then allowed to polymerize for 0.5 h at 37 °C. Sprague–Dawley rats that were 4 to 6 weeks old were sacrificed and aortas were harvested. Each aorta was cut into 1 mm slices and embedded in additional 100 μL of Matrigel in 96-well plates. After that, the rings were incubated for 30 min at 37 °C and 5% CO2. Aorta rings were treated with the vehicle (0.5% DMSO) or compounds each day for 5 days and photographed on the sixth day at ×200 magnification. All experiments involving laboratory animals were performed with the approval by the institutional guidelines of Animal Care and Use Committee at Shandong University.

The next assay concerns the target T2, HDAC8 (Homo sapiens, UniProt Q9BY41).
T2 construct: purchased BPS Bioscience
T2 sequence (Q9BY41 1-377): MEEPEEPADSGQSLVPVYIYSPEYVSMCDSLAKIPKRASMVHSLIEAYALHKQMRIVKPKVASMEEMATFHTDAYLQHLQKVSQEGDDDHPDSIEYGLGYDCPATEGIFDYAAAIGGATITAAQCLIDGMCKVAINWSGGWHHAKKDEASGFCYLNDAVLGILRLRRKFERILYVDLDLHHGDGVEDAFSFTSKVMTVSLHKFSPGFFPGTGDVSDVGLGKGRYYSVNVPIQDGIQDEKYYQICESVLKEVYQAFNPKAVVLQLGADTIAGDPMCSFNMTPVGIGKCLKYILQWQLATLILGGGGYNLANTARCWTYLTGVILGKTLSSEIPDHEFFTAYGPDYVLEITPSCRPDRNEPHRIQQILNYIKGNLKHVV
The experiment in a line: In vitro HDACs inhibitory assay (fluorogenic substrate), HDAC8. It counts as biochemical. Here is the method:
as §1

Assay [1] deals with T3, microsomal APN from porcine kidney microsomes (Sus scrofa, UniProt P15145).
T3 construct: microsomal APN from porcine kidney microsomes (Biocol); purchased Biocol; host or cells: porcine kidney microsomes (tissue-derived)
T3 sequence (P15145 1-963): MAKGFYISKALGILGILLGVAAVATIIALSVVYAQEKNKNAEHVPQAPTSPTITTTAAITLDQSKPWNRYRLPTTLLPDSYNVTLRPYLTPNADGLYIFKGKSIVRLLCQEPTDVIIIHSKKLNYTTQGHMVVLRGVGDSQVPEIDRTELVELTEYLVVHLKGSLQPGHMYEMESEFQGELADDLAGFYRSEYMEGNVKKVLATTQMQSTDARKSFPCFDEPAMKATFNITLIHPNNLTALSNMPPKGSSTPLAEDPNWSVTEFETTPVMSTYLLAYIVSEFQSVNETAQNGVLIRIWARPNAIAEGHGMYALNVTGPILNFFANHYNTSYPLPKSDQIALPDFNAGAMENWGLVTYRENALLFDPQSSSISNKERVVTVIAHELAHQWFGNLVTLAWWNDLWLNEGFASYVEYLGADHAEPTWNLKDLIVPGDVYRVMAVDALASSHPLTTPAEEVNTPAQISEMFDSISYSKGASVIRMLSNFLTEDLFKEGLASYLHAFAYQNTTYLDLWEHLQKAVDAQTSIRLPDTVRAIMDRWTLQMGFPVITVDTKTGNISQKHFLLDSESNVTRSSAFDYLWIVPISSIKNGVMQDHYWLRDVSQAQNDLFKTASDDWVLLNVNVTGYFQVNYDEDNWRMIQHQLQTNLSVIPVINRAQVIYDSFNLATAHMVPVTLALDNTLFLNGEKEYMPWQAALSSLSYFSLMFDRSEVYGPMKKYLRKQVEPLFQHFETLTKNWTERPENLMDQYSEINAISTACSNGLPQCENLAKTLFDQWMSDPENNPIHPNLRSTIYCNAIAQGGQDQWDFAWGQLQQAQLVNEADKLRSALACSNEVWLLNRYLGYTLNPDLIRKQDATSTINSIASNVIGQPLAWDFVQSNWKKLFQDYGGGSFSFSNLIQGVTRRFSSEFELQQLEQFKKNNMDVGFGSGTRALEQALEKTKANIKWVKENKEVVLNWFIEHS
The experiment in a line: In vitro APN inhibitory assay (l-leu-p-nitroanilide substrate). It counts as biochemical. The conditions noted are these: mean ± SD, n ≥ 3. Here is the method: The inhibitory activities of target compounds against APN were determined using l-leu-p-nitroanilide as substrate and microsomal APN from porcine kidney microsomes (Biocol) in 50 mM PBS, pH 7.2 as enzyme. Briefly, inhibitors (40 μL), PBS (145 μL), substrate (5 μL) and APN solution (10 μL) were added into 96-well plates. The mixture was incubated at 37 °C for 30 min. […] The inhibition rates were calculated based on the ultraviolet absorption readout of tested wells relative to those of control wells, and the IC50 values were calculated using Prism non-linear curve fitting method.

The test system of a further assay is RPMI-8226 cells. The experiment in a line: Western blot analysis of protein levels in RPMI-8226 cells. The class given is cell-based, human. The conditions noted are these: for HDAC1, HDAC6 and HDAC8 protein levels (western blot) / HDAC decreasing effect under cotreatment with proteasome inhibitor bortezomib: 24 h treatment; for acetyl-histone H3 and acetyl-α-tubulin levels (intracellular target engagement) / HDAC1 and HDAC6 protein levels (western blot): 6 h treatment; for HDAC decreasing effect under cotreatment with proteasome inhibitor bortezomib: pre-incubated with 10 nM bortezomib. On the procedure: The RPMI-8226 cells were plated in flat-bottom six-well plates and allowed to grow for 12 h, and then treated with compounds or DMSO for a specific time period. Then, the cells were washed twice with cold PBS and lysed in ice-cold RIPA buffer, which comprised 50 mM Tris Base, 150 mM NaCl, 5 mM EDTA, 0.1% (v/v) SDS, 0.5% (v/v) sodium deoxycholate and 1% (v/v) Triton-x-100. Lysates were cleared by centrifugation. Protein concentrations were determined using the BCA assay. Equal amounts of cell extracts were then resolved by SDS-PAGE, transferred to nitrocellulose membrane and probed with HDAC1 antibody, HDAC6 antibody, HDAC8 antibody, acetyl-histone H3 antibody, acetyl-α-tubulin antibody and β-actin antibody, respectively. The membrane was washed twice with TBST buffer before being incubated with secondary antibodies. Images were acquired using a GE ImageQuant LAS 4000.
In general terms: In western blotting, separated proteins are transferred to a membrane and probed.

The target in the next assay is T4, HDAC1 (Homo sapiens, UniProt Q13547).
T4 construct: purchased BPS Bioscience
The assay is described as follows: In vitro HDACs inhibitory assay (fluorogenic substrate), HDAC1. The class given is biochemical. Here is the method:
as §1

The mark [2] stands for this setting: read-out: Inhibitory Rates at 10 μM, HDAC6.
The mark [3] stands for this setting: read-out: Inhibitory Rates at 10 μM, HDAC8.
Where [4] appears, read: read-out: Inhibitory Rates at 10 μM, HDAC1.

This note sets out measurements from publication PMC7662900, “Development of a Bestatin-SAHA Hybrid with Dual Inhibitory Activity against APN and HDAC” (Molecules, 2020).

Structures are written as SMILES. “Also recorded” adds a separate entry of the source. Read-outs that look alike come from different tables or passages of the source.

T4 sequence (Q13547 whole entry): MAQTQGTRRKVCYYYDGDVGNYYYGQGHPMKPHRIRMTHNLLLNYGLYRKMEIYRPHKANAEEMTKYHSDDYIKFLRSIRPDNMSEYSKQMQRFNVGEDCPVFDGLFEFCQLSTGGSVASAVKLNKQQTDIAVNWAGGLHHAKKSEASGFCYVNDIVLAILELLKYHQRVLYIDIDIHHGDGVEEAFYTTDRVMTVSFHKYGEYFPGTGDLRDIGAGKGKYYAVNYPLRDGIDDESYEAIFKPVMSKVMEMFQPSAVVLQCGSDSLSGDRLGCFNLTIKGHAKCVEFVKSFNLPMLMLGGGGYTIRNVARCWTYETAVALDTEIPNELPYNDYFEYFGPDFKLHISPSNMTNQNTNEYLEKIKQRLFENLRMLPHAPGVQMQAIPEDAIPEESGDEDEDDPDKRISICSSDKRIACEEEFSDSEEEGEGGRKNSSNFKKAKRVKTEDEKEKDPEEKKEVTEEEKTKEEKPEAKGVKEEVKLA

What is called IC50 is the concentration needed to halve the response being measured. High values mean a need for much substance, low ones inhibition by little substance. On to `CC(C)C[C@H](NC(=O)[C@@H](O)[C@H](N)Cc1ccccc1)C(=O)NCCCCCC(=O)Nc1ccc(NC(=O)CCCCCCC(=O)NO)cc1.O=C(O)C(F)(F)F` [P1, N^1-(4-(6-((S)-2-((2S,3R)-3-Amino-2-hydroxy-4-phenylbutanamido)-4-methylpentanamido)hexanamido)phenyl)-N^8-hydroxyoctanediamide trifluoroacetate], for which the IC50 against HDAC6 (mean ± SD, n ≥ 3) came to 11.5 nM; at HDAC8 (mean ± SD, n ≥ 3), 694 nM; in assay [1] it was 3430 ± 140 nM; at HDAC1 (mean ± SD, n ≥ 3), 30 nM. Further, the inhibition at 10 µM was above 90% on HDAC6 (read-out: Inhibitory Rates at 10 μM, HDAC6, 10 μM); above 90% at HDAC8 (read-out: Inhibitory Rates at 10 μM, HDAC8, 10 μM); above 90% on HDAC1 (read-out: Inhibitory Rates at 10 μM, HDAC1, 10 μM). Besides, the “anti-angiogenesis activity (microvessel outgrowth) at 5 μM” value (“anti-angiogenesis activity” below) with rat thoracic aorta rings was “superior anti-angiogenesis activities relative to bestatin”. In the assay with rat thoracic aorta rings, the “microvessel outgrowth from thoracic aorta ring” value is reported as “effectively inhibited the microvessel outgrowth in a dose-dependent manner”. The “HDAC1, HDAC6 and HDAC8 protein levels (western blot)” value in the assay with RPMI-8226 cells (1 μM to 4 μM) is “significantly decrease the levels of HDAC1, HDAC6 and even HDAC8 in a dose-dependent manner”. The “acetyl-histone H3 and acetyl-α-tubulin levels (intracellular target engagement)” value in the assay with RPMI-8226 cells was “increased levels of acetyl-histone H3 (the HDAC1 substrate) and acetyl-α-tubulin (the HDAC6 substrate)”. The “HDAC decreasing effect under cotreatment with proteasome inhibitor bortezomib” value in the assay on RPMI-8226 cells was “could not reverse”. Further, the “HDAC1 and HDAC6 protein levels (western blot)” value with RPMI-8226 cells (up to 20 μM) is “did not lead to HDAC1 or HDAC6 depletion”.

For the molecule `CC(C)C[C@H](NC(=O)[C@@H](O)[C@H](N)Cc1ccccc1)C(=O)NCCOCCOCCNC(=O)c1cccc(C(=O)NO)c1.O=C(O)C(F)(F)F` [P2, N^1-((11S,14S,15R)-15-Amino-14-hydroxy-11-isobutyl-10,13-dioxo-16-phenyl-3,6-dioxa-9,12-diazahexadecyl)-N^3-hydroxyisophthalamide trifluoroacetate], the inhibition at 10 µM is 76% on HDAC6 (setting [2]), 64% on HDAC8 (setting [3]) and 66% at HDAC1 (setting [4]). Also, the “anti-angiogenesis activity” value in the assay with rat thoracic aorta rings is “superior anti-angiogenesis activities relative to bestatin; also recorded: almost completely inhibit the microvessel outgrowth”. Moreover, the “microvessel outgrowth from thoracic aorta ring” value in the assay on rat thoracic aorta rings is recorded as “effectively inhibited the microvessel outgrowth in a dose-dependent manner”. The molecule also showed a concentration for half-maximal inhibition (IC50) in assay [1] of 1670 ± 30 nM.

For the molecule `CC(C)C[C@H](NC(=O)[C@@H](O)[C@H](N)Cc1ccccc1)C(=O)NCCOCCOCC(=O)Nc1cccc(C(=O)NO)c1` [P3, 3-((11S,14S,15R)-15-Amino-14-hydroxy-11-isobutyl-10,13-dioxo-16-phenyl-3,6-dioxa-9,12-diazahexadecanamido)-N-hydroxybenzamide], the inhibition at 10 µM stood at 71% at HDAC6 (setting [2]), 51% at HDAC8 (setting [3]) and 67% on HDAC1 (setting [4]). In addition, the “anti-angiogenesis activity” value in the assay on rat thoracic aorta rings was “superior anti-angiogenesis activities relative to bestatin”. In addition, the “microvessel outgrowth from thoracic aorta ring” value in the assay with rat thoracic aorta rings was “effectively inhibited the microvessel outgrowth in a dose-dependent manner”. In assay [1], 2650 ± 160 nM corresponded to half-maximal inhibition (IC50).

Regarding `O=C(CCCCCCC(=O)Nc1ccccc1)NO` [SAHA], the “HDAC1, HDAC6 and HDAC8 protein levels (western blot)” value in the assay on RPMI-8226 cells (5 μM) was “effectively lead to the downregulation of HDAC1, HDAC6 and HDAC8”. Moreover, in the assay on RPMI-8226 cells, the “acetyl-histone H3 and acetyl-α-tubulin levels (intracellular target engagement)” value is given as “potently inhibited the intracellular HDAC”; the “HDAC decreasing effect under cotreatment with proteasome inhibitor bortezomib” value is recorded as “could not reverse”. Besides, the “HDAC1 and HDAC6 protein levels (western blot)” value in the assay with RPMI-8226 cells (indicated concentrations) is “without influencing the levels of HDAC1 and HDAC6”.
